Laboratory results as given in US11453660B2, “Androgen receptor and glucocorticoid receptor modulators” (ONCOSTELLAE, S.L., priority 2017, dated 2022).

Target: T1, human androgen receptor (Homo sapiens, UniProt P10275, T878A)
T1 construct: endogenously expressed human androgen receptor using the LnCap prostate cancer cell line; endogenous in cells; host or cells: LNCaP prostate cancer cell line (whole cells)
T1 sequence (P10275 1-920 T878A): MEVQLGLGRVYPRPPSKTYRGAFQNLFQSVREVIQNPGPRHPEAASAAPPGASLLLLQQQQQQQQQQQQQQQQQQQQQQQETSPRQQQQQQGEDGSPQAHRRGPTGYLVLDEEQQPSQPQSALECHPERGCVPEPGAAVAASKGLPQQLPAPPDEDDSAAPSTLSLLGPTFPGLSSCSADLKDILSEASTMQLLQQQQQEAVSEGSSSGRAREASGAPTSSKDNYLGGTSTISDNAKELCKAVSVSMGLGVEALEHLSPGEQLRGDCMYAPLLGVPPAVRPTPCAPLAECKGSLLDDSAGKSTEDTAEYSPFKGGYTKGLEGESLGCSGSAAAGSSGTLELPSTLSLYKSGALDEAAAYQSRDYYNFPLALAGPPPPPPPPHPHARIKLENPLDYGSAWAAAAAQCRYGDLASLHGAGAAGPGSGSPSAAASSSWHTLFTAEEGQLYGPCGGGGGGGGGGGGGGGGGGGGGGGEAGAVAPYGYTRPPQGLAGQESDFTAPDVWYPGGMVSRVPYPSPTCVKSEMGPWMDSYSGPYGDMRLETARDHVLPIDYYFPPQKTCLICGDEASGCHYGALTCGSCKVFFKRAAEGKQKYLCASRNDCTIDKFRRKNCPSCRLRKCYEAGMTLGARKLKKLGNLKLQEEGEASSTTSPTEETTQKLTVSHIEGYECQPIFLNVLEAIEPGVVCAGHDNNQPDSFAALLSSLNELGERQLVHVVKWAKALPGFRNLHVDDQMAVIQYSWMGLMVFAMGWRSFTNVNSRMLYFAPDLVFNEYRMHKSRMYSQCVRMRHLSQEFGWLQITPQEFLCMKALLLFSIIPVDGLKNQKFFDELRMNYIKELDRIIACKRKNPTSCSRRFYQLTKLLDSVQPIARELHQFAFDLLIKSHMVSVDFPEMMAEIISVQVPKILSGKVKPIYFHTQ
Experiment: Human Androgen Receptor Binding (radioligand binding, LnCap prostate cancer cell line)
Conditions: LnCap cells, displacement of [^3H]-methyltrienolone, 2 hours at 37° C.; read-out: AR LNCaP
Protocol: Human Androgen Receptor Binding
Radioligand binding studies were carried out on endogenously expressed human androgen receptor using the LnCap prostate cancer cell line. The test is based on measuring radioactively labelled AR ligand [^3H]-methyltrienolone that gets displaced by increasing concentrations of test compound. The test is performed in 96-well plates (Falcon, #353072). Positive and negative controls are also required in each analyzed plate to evaluate the total and non-specific binding binding of the radioligand to the receptor. Cells (60000 per well) were incubated for 24 hours before executing the experiment at 37° C. and in a 5% CO2 atmosphere. Medium was replaced by assay buffer (RPMI-640 (ATCC #30-2001) supplemented with 0.1% bovine serum albumin (Sigma #8806-56) and Triamcinolone acetonide (Sigma #T6501)). The compounds at the desired concentrations and [^3H]methyltrienolone (Perkin Elmer #NET590) were added to the wells.
In order to obtain a dose-response curve and calculate the potency of inhibition (expressed as IC50) for AR, a series of 1:10 dilutions in test in 1× buffer from 10 μM to 0.1 nM for each compound was carried out.
Cells were incubated for 2 hours at 37° C. in a 5% CO2 atmosphere and then washed twice with ice-cold HBSS. Then cells were lysed with solubilization buffer (Hank's Balanced Salt Solution (HBSS, Sigma #H6648), 0.5% Sodium dodecyl sulfate 0.5% (SDS, Sigma #L7390-500G, Lote: 078K0102) and 20% Glycerol (Sigma Aldrich, #G2025) for 30 minutes at RT. 75 μL aliquots were taken from each well and transferred to a 96-well flexiplate (Perkin Elmer #1450-401) and mixed with 100 μL of scintillation cocktail (Optiphase supermix, PerkinElmer, #1200-439). Plates are shaken for 60 minutes and radioactivity was measured in a beta scintillation counter (Microbeta Trilux, Perkin Elmer).

| SMILES | IC50 [µM] |
| --- | --- |
| CC(=O)C1=C(C)NC(C)=C(C(=O)OCC2CC2)C1c1csc2ccc(Cl)cc12 (stereo not drawn) [Example C32, Cyclopropylmethyl 5-acetyl-4-(5-chlorobenzo[b]thiophen-3-yl)-2,6-dimethyl-1,4-dihydropyridine-3-carboxylate] | ≥ 1 |
| CC(=O)C1=C(C)NC(C)=C(C(=O)OCC2CCCCC2)C1c1csc2ncccc12 (stereo not drawn) [Example C34, Cyclohexylmethyl 5-acetyl-2,6-dimethyl-4-(thieno[2,3-b]pyridin-3-yl)-1,4-dihydropyridine-3-carboxylate] | ≥ 1 |
| CC(=O)C1=C(C)NC(C)=C(C(=O)OC2CCCC2)C1c1csc2ncccc12 (stereo not drawn) [Example C37, Cyclopentyl 5-acetyl-2,6-dimethyl-4-(thieno[2,3-b]pyridin-3-yl)-1,4-dihydropyridine-3-carboxylate] | < 0.1 |
| COC(=O)C1=C(C(F)(F)F)NC(C)=C(C(C)=O)C1c1csc2ccc(Cl)cc12 (stereo not drawn) [Example C38, Methyl 5-acetyl-4-(5-chlorobenzo[b]thiophen-3-yl)-6-methyl-2-(trifluoromethyl)-1,4-dihydropyridine-3-carboxylate] | < 0.1 |
| CC(=O)C1=C(C)NC(C(F)(F)F)=C(C(=O)OCc2ccccc2)C1c1csc2ccccc12 (stereo not drawn) [Example C45, Benzyl 5-acetyl-4-(benzo[b]thiophen-3-yl)-6-methyl-2-(trifluoromethyl)-1,4-dihydropyridine-3-carboxylate] | ≥ 1 |
| CC(=O)C1=C(C)NC(C)=C(C(=O)OCc2ccc(F)cc2)C1c1csc2ncccc12 (stereo not drawn) [Example C47, 4-Fluorobenzyl 5-acetyl-2,6-dimethyl-4-(thieno[2,3-b]pyridin-3-yl)-1,4-dihydropyridine-3-carboxylate] | 0.1 to 1 |
| COC(=O)C1=C(C(F)(F)F)NC(C)=C(C(C)=O)C1c1csc2ncccc12 (stereo not drawn) [Example C53, Methyl 5-acetyl-6-methyl-4-(thieno[2,3-b]pyridin-3-yl)-2-(trifluoromethyl)-1,4-dihydropyridine-3-carboxylate] | < 0.1 |

Results, then the compound that gave them:

| IC50 [µM] | SMILES |
| --- | --- |
| 0.1 to 1 | COC(=O)C1=C(C2CC2)NC(C)=C(C(C)=O)C1c1csc2ccc(Cl)cc12 (stereo not drawn) [Example J25, Methyl 5-acetyl-4-(5-chlorobenzo[b]thiophen-3-yl)-2-cyclopropyl-6-methyl-1,4-dihydropyridine-3-carboxylate] |
| 0.1 to 1 | COC(=O)C1=C(C2CC2)NC(C)=C(C(C)=O)C1c1csc2c(C(=O)OC)cccc12 (stereo not drawn) [Example J29, Methyl 5-acetyl-2-cyclopropyl-4-(7-(methoxycarbonyl)benzo[b]thiophen-3-yl)-6-methyl-1,4-dihydropyridine-3-carboxylate] |
| ≥ 1 | COC(=O)C1=C(C2CC2)NC(C)=C(C(C)=O)C1c1csc2c(C(=O)O)cccc12 (stereo not drawn) [Example J30, 3-(3-Acetyl-6-cyclopropyl-5-(methoxycarbonyl)-2-methyl-1,4-dihydropyridin-4-yl)benzo[b]thiophene-7-carboxylicacid] |
| ≥ 1 | CC(=O)C1=C(C)NC(C)=C(C(C)=O)C1c1csc2c(C#N)cccc12 [Example J40, 3-(3,5-diacetyl-2,6-dimethyl-1,4-dihydropyridin-4-yl)benzo[b]thiophene-7-carbonitrile] |

Target: T2, Human Glucocorticoid Receptor (Homo sapiens, UniProt P04150)
T2 construct: endogenous in cells; host or cells: cytosol from IM-9 cell line
T2 sequence (P04150 1-777): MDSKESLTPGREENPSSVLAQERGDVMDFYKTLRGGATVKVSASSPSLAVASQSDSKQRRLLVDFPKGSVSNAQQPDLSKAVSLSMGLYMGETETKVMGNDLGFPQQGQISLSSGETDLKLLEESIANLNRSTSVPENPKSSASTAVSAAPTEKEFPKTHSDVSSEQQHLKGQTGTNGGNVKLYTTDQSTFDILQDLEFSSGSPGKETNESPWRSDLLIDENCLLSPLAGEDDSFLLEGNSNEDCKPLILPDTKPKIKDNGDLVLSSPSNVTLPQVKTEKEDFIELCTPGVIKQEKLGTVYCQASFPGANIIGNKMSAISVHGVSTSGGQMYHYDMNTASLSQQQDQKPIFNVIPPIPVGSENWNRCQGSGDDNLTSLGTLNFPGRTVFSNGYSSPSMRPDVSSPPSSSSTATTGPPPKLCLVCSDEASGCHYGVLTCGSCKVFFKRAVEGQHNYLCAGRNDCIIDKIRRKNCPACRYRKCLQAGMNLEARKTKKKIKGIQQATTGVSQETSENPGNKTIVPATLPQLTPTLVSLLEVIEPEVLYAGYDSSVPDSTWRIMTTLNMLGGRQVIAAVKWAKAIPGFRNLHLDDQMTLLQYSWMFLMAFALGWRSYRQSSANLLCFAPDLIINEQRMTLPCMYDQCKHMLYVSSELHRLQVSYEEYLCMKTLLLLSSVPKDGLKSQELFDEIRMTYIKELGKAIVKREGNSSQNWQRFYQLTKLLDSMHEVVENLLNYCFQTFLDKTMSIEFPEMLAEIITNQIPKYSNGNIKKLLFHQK
Experiment: Competition Binding in IM-9 Human Glucocorticoid Receptor (GR IM-9)
Conditions: cytosol from IM-9 cell line, 1.5 nM [3H]-Dexamethasone, 4° C. for 6 hours
Protocol: Competition Binding in IM-9 Human Glucocorticoid Receptor (GR IM-9)
Glucocorticoid receptor competition binding assays were carried out in a polypropilene 96-well plate. In each well was incubated 100 μg of cytosol from IM-9 cell line, 1.5 nM [3H]-Dexamethasone (71 Ci/mmol, 1 mCi/ml, Perkin Elmer NET1192001MC) and compounds studied and standard. Non-specific binding was determined in the presence of Triamcinolone 10 μM (Sigma Aldrich T6376).
The reaction mixture (Vt: 200 μl/well) was incubated at 4° C. for 6 hours, 180 μL was transferred to GF/B 96-well plate (Millipore, Madrid, Spain) pretreated with 0.5% of PEI and treated with binding buffer (TES 10 mM, sodium molybdate 10 mM, EDTA 1 mM, pH 7.4, 2-mercaptoethanol 20 mM, Glycerol 10%) after was filtered and washed six times with 250 μl wash buffer (TES 10 mM, sodium molybdate 10 mM, EDTA 1 mM, pH 7.4, 2-mercaptoethanol 20 mM Glycerol 10%), before measuring in a microplate beta scintillation counter (Microbeta Trilux, PerkinElmer, Madrid, Spain).

| SMILES | IC50 [µM] |
| --- | --- |
| CC(=O)C1=C(C)NC(C)=C(C(=O)OCC2CCCCC2)C1c1csc2ncccc12 (stereo not drawn) [Example C34, Cyclohexylmethyl 5-acetyl-2,6-dimethyl-4-(thieno[2,3-b]pyridin-3-yl)-1,4-dihydropyridine-3-carboxylate] | < 0.1 |
| CC(=O)C1=C(C)NC(C)=C(C(=O)OC2CCCC2)C1c1csc2ncccc12 (stereo not drawn) [Example C37, Cyclopentyl 5-acetyl-2,6-dimethyl-4-(thieno[2,3-b]pyridin-3-yl)-1,4-dihydropyridine-3-carboxylate] | < 0.1 |
| CC(=O)C1=C(C)NC(C)=C(C(=O)OCc2ccc(F)cc2)C1c1csc2ncccc12 (stereo not drawn) [Example C47, 4-Fluorobenzyl 5-acetyl-2,6-dimethyl-4-(thieno[2,3-b]pyridin-3-yl)-1,4-dihydropyridine-3-carboxylate] | < 0.1 |
| COC(=O)C1=C(C2CC2)NC(C2CC2)=C(C(=O)OC)C1c1csc2ccc(Cl)cc12 [Example J25-a, Dimethyl 4-(5-chlorobenzo[b]thiophen-3-yl)-2,6-dicyclopropyl-1,4-dihydropyridine-3,5-dicarboxylate] | 0.1 to 1 |
| O=C(OCc1ccc(F)cc1)C1=C(C2CC2)NC(C2CC2)=C(C(=O)OCc2ccc(F)cc2)C1c1csc2ncccc12 [Example J42-a, bis(4-fluorobenzyl) 2,6-dicyclopropyl-4-(thieno[2,3-b]pyridin-3-yl)-1,4-dihydropyridine-3,5-dicarboxylate] | 0.1 to 1 |

Results, then the compound that gave them:

| IC50 [µM] | SMILES |
| --- | --- |
| ≥ 1 | CC(=O)C1=C(C)NC(C2CC2)=C(C(=O)OCc2ccncc2)C1c1csc2ncccc12 (stereo not drawn) [Example J36, Pyridin-4-ylmethyl 5-acetyl-2-cyclopropyl-6-methyl-4-(thieno[2,3-b]pyridin-3-yl)-1,4-dihydropyridine-3-carboxylate] |
| 0.1 to 1 | CC(=O)C1=C(C)NC(C)=C(C(=O)OCc2ccnc(-c3ccncc3)c2)C1c1csc2ncccc12 (stereo not drawn) [Example L12, [2,4′-bipyridin]-4-ylmethyl 5-acetyl-2,6-dimethyl-4-(thieno[2,3-b]pyridin-3-yl)-1,4-dihydropyridine-3-carboxylate] |
| 0.1 to 1 | COC(=O)C1=C(C2CC2)NC(C)=C(C(C)=O)C1c1csc2c(-c3ccncc3)cccc12 (stereo not drawn) [Example L13, Methyl 5-acetyl-2-cyclopropyl-6-methyl-4-(7-(pyridin-4-yl)benzo[b]thiophen-3-yl)-1,4-dihydropyridine-3-carboxylate] |
| ≥ 1 | COC(=O)C1=C(C2CC2)NC(C)=C(C(C)=O)C1c1csc2c(C3CC3)cccc12 (stereo not drawn) [Example L14, Methyl 5-acetyl-2-cyclopropyl-4-(7-cyclopropylbenzo[b]thiophen-3-yl)-6-methyl-1,4-dihydropyridine-3-carboxylate] |
| ≥ 1 | COC(=O)C1=C(C2CC2)NC(C)=C(C(C)=O)C1c1csc2c(-c3ccccc3)cccc12 (stereo not drawn) [Example N1, Methyl 5-acetyl-2-cyclopropyl-6-methyl-4-(7-phenylbenzo[b]thiophen-3-yl)-1,4-dihydropyridine-3-carboxylate] |
